The target of this assay is T1, cathepsin D isolated from the human liver (Homo sapiens, UniProt P07339).
T1 construct: cathepsin D isolated from the human liver (Sigma-Aldrich); purchased Sigma-Aldrich; host or cells: human liver (tissue-derived, not recombinant)
The experiment in a line: In-vitro fluorescence assay for identification of cathepsin D inhibitors. In kind it is biochemical. As to conditions: human liver cathepsin D 1.4 nM, pH 5.5; read-out: CatD assay IC50-(M). On the procedure:
EXAMPLE 4: IN-VITRO FLUORESCENCE ASSAY FOR IDENTIFICATION OF CATHEPSIN D INHIBITORS
In order to identify modulators of cathepsin D activity, a continuous enzymatic test was carried out with a synthetic peptide which carries a fluorescent group (MCA=(7-methoxycoumarin-4-yl)acetyl) which is quenched by energy transfer from a Dpn (2,4 dinitrophenyl) group on the same molecule, in Greiner 384-well nb microtitre plates. Cleavage of the peptidic substrate by cathepsin D causes an increase in the fluorescence intensity. In order to determine the efficacy of substances, the time-dependent increase in the fluorescence intensity in the presence of the substance was compared with the time-dependent increase in fluorescence in the absence of substances. The reference substance used was pepstatin A (Sigma-Aldrich). The substrate used was MCA-GKPILFFRLK(Dnp)d-R—NH2 (Enzo Life Sciences, Lörrach). The enzyme employed was cathepsin D isolated from the human liver (Sigma-Aldrich) in a final concentration of 1.4 nM. The test was carried out in 100 mM sodium acetate buffer, 1.25% (v/v) of DMSO, 0.25% (w/v) of Chaps, pH 5.5. 2 μl of each substance solution with serially diluted substance concentration were added to in each case 4 μl of cathepsin D solution and incubated at room temperature for 10 min. The reaction was started by addition of 2 μl of substrate solution (final concentration 5 μM). After carrying out a starting-point fluorescence measurement (excitation wavelength 340 nm/emission wavelength 450 nm) using an Envision multilabel reader (Perkin Elmer), the reaction was incubated at room temperature for 60 min. The amount of peptide fragment cleaved off during the reaction time was subsequently measured by determination of the increase in the fluorescence intensity at 450 nm (excitation wavelength 340 nm).

These results are taken from US10077288B2, “Hydroxystatin derivatives for the treatment of arthrosis” (Merck Patent GmbH, priority 2012, dated 2018).

SMILES strings stand for the structures. *1 amine or outer side, *2 acyl side, *3 side chain or, on linkers, in order; H or OH if unused. Where a SMILES comes first, the peptide text is derived from it. [ ]: non-standard residue; d: D form. The star is where a group is joined. Ahppa(3S,4S) = O=C(C[C@H](O)[C@H](Cc1ccccc1)N[*:1])[*:2]; PhAc = O=C(Cc1ccccc1)*; OBn = c1ccc(CO*)cc1

The term IC50 denotes the concentration that gives 50% inhibition.

T1 sequence (P07339 65-161 limits assumed): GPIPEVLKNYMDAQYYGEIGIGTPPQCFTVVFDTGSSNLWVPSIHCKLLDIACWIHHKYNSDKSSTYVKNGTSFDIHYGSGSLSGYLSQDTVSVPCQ
T1 sequence (P07339 169-412 limits assumed): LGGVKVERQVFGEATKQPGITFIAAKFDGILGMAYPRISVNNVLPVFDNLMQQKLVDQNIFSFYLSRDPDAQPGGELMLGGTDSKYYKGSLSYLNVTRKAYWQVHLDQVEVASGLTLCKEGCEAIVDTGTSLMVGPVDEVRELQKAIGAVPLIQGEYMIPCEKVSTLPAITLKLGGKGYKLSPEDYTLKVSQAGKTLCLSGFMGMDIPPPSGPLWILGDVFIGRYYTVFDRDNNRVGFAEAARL

Regarding `CC[C@H](C)[C@H](NC(=O)C[C@H](O)[C@H](Cc1ccccc1)NC(=O)[C@@H](NC(=O)COc1ccc(C)c(C)c1)C(C)C)C(=O)N[C@H](C(=O)O)C(C)C` [Compound 29, (S)-2-[(2S,3S)-2-((3S,4S)-4-{(S)-2-[2-(3,4-dimethylphenoxy)acetylamino]-3-methylbutyrylamino}-3-hydroxy-5-phenylpentanoylamino)-3-methylpentanoylamino]-3-methylbutyric acid], the IC50 is 1e-07 M.
In the case of `CC[C@H](C)[C@H](NC(=O)C[C@H](O)[C@H](Cc1ccccc1)NC(=O)[C@@H](NC(=O)Cc1cccc2ccccc12)C(C)C)C(=O)N[C@H](C(=O)O)C(C)C` [Compound 30, (S)-2-((2S,3S)-2-{(3S,4S)-3-hydroxy-4-[(S)-3-methyl-2-(2-naphthalen-1-ylacetylamino)butyrylamino]-5-phenylpentanoylamino}-3-methylpentanoylamino)-3-methylbutyric acid] it was 8.5e-08 M; in that of `CC[C@H](C)[C@H](NC(=O)C[C@H](O)[C@H](Cc1ccccc1)NC(=O)[C@@H](NC(=O)c1cccc(-c2ccccc2)c1)C(C)C)C(=O)N[C@H](C(=O)O)C(C)C` [Compound 31, (S)-2-[(2S,3S)-2-((3S,4S)-4-{(S)-2-[(biphenyl-3-carbonyl)amino]-3-methylbutyrylamino}-3-hydroxy-5-phenylpentanoylamino)-3-methylpentanoylamino]-3-methylbutyric acid], 1.6e-07 M.
In the case of `CC[C@H](C)[C@H](NC(=O)C[C@H](O)[C@H](Cc1ccccc1)NC(=O)[C@@H](NC(=O)C(c1ccccc1)c1ccccc1)C(C)C)C(=O)N[C@H](C(=O)OCc1ccccc1)C(C)C` [Compound 32, benzyl (S)-2-{(2S,3S)-2-[(3S,4S)-4-((S)-2-diphenylacetylamino-3-methylbutyrylamino)-3-hydroxy-5-phenylpentanoylamino]-3-methylpentanoylamino}-3-methylbutyrate] it was 3.2e-07 M; in that of `CC[C@H](C)[C@H](NC(=O)C[C@H](O)[C@H](Cc1ccccc1)NC(=O)[C@@H](NC(=O)C(c1ccccc1)c1ccccc1)C(C)C)C(=O)N[C@H](C(=O)O)C(C)C` [Compound 33, (S)-2-{(2S,3S)-2-[(3S,4S)-4-((S)-2-diphenylacetylamino-3-methyl-butyrylamino)-3-hydroxy-5-phenylpentanoylamino]-3-methylpentanoylamino}-3-methylbutyric acid], 1.6e-08 M; in that of `CCOc1cccc(CC(=O)N[C@H](C(=O)N[C@@H](Cc2ccccc2)[C@@H](O)CC(=O)N[C@H](C(=O)N[C@H](C(=O)OCc2ccccc2)C(C)C)[C@@H](C)CC)[C@@H](C)CC)c1` [Compound 34, benzly (S)-2-[(2S,3S)-2-((3S,4S)-4-{(S)-2-[2-(3-ethoxyphenyl)-acetylamino]-3-methyl-1-(S)-oxopentylamino}-3-hydroxy-5-phenylpentanoylamino)-3-methylpentanoylamino]-3-methylbutyrate], 2.7e-07 M.
In the case of `CC[C@H](C)[C@H](NC(=O)C[C@H](O)[C@H](Cc1ccccc1)NC(=O)[C@@H](NC(=O)[C@@H](O)c1ccccc1)C(C)C)C(=O)N[C@H](C(=O)OCc1ccccc1)C(C)C` [Compound 35, benzly (S)-2-((2S,3S)-2-{(3S,4S)-3-hydroxy-4-[(S)-2-((S)-2-hydroxy-2-phenylacetylamino)-3-methylbutyrylamino]-5-phenylpentanoylamino}-3-methylpentanoylamino)-3-methylbutyrate] it was 5.8e-07 M.
Take `CCOc1cccc(CC(=O)N[C@H](C(=O)N[C@@H](Cc2ccccc2)[C@@H](O)CC(=O)N[C@H](C(=O)N[C@H](C(=O)O)C(C)C)[C@@H](C)CC)[C@@H](C)CC)c1` [Compound 36, (S)-2-[(2S,3S)-2-((3S,4S)-3-hydroxy-4-{(S)-methyl-1-(S)-2-[2-(3-ethoxyphenyl)acetylamino]-3-oxopentylamino}-5-phenylpentanoylamino)-3-methylpentanoylamino]-3-methylbutyric acid]: the IC50 is 4.3e-08 M.
For the compound `CC[C@H](C)[C@H](NC(=O)C[C@H](O)[C@H](Cc1ccccc1)NC(=O)[C@@H](NC(=O)[C@@H](O)c1ccccc1)C(C)C)C(=O)N[C@H](C(=O)O)C(C)C` [Compound 37, (S)-2-((2S,3S)-2-{(3S,4S)-3-hydroxy-4-[(S)-2-((S)-2-hydroxy-2-phenylacetylamino)-3-methylbutyrylamino]-5-phenylpentanoylamino}-3-methylpentanoylamino)-3-methylbutyric acid], the IC50 was 3.1e-07 M.
For `CC[C@H](C)[C@H](NC(=O)C[C@H](O)[C@H](Cc1ccccc1)NC(=O)[C@@H](NC(=O)C(CC)(CC)CC)C(C)C)C(=O)N[C@H](C(=O)O)C(C)C` [Compound 38, (S)-2-((2S,3S)-2-{(3S,4S)-4-[(S)-2-(2,2-diethylbutyrylamino)-3-methylbutyrylamino]-3-hydroxy-5-phenylpentanoylamino}-3-methylpentanoylamino)-3-methylbutyric acid], the IC50 came to 7e-06 M.
`CC[C@H](C)[C@H](NC(=O)C[C@H](O)[C@H](Cc1ccccc1)NC(=O)[C@@H](NC(=O)Cc1cccc(OCCNC(=O)OC(C)(C)C)c1)[C@@H](C)CC)C(=O)N[C@H](C(=O)O)C(C)C` [Compound 39, (S)-2-{(2S,3S)-2-[(3S,4S)-4-((S)-2-{2-[3-(2-tert-butoxycarbonyl-aminoethoxy)phenyl]acetylamino}-3-methyl-1-(S)-oxopentylamino)-3-hydroxy-5-phenylpentanoylamino]-3-methylpentanoylamino}-3-methylbutyric acid]: the IC50 was 3.9e-08 M.
As for `CCCOc1cccc(CC(=O)N[C@H](C(=O)N[C@@H](Cc2ccccc2)[C@@H](O)CC(=O)N[C@H](C(=O)N[C@H](C(=O)O)C(C)C)[C@@H](C)CC)[C@@H](C)CC)c1` [Compound 40, (S)-2-[(2S,3S)-2-((3S,4S)-3-hydroxy-4-{(2S,3S)-3-methyl-2-[2-(3-propoxyphenyl)acetylamino]pentanoylamino}-5-phenylpentanoylamino)-3-methylpentanoylamino]-3-methylbutyric acid], the figure is 1.7e-08 M; as for `CC[C@H](C)[C@H](NC(=O)C[C@H](O)[C@H](Cc1ccccc1)NC(=O)[C@@H](NC(=O)Cc1cccc(OCCN)c1)[C@@H](C)CC)C(=O)N[C@H](C(=O)O)C(C)C` [Compound 41, (S)-2-{(2S,3S)-2-[(3S,4S)-4-((S)-2-{2-[3-(2-aminoethoxy)phenyl]-acetylamino}-3-methyl-1-(S)-oxopentylamino)-3-hydroxy-5-phenylpentanoylamino]-3-methylpentanoylamino}-3-methylbutyric acid], 4.8e-07 M.
In the case of `CCC(CC)NC(=O)[C@@H](NC(=O)C[C@H](O)[C@H](Cc1ccccc1)NC(=O)[C@@H](NC(=O)[C@H](CC(C)C)NC(=O)CC(C)C)C(C)C)[C@@H](C)CC` [Compound 42, N-[(1S,2S)-1-(1-ethylpropylcarbamoyl)-2-methylbutyl]-(2S,5S)-3-hydroxy-4-{(S)-3-methyl-2-[(S)-4-methyl-2-(3-methylbutyrylamino)-pentanoylamino]butyrylamino}-5-phenylpentanamide] it was 1.3e-09 M; in that of `CCC(CC)NC(=O)[C@@H](NC(=O)C[C@H](O)[C@H](Cc1ccccc1)NC(=O)[C@@H](NC(=O)[C@H](CC(C)C)NC(=O)Cc1ccccc1)C(C)C)[C@@H](C)CC` [Compound 43, N-[(1S,2S)-1-(1-ethylpropylcarbamoyl)-2-methylbutyl]-(2S,5S)-3-hydroxy-4-[(S)-3-methyl-2-((S)-4-methyl-2-phenylacetylaminopentanoylamino)-1-oxobutylamino]-5-phenylpentanamide], 3.5e-09 M; in that of `CC[C@H](C)[C@H](NC(=O)C[C@H](O)[C@H](Cc1ccccc1)NC(=O)[C@@H](NC(=O)[C@H](CC(C)C)NC(=O)Cc1ccccc1)C(C)C)C(=O)N[C@H](C(=O)OCc1ccccc1)C(C)C` [Compound 44, benzyl (S)-2-((2S,3S)-2-{(3S,4S)-3-hydroxy-4-[(S)-3-methyl-2-((S)-4-methyl-2-phenylacetylaminopentanoylamino)butyrylamino]-5-phenylpentanoylamino}-3-methylpentanoylamino)-3-methylbutyrate] (PhAc-LV[Ahppa(3S,4S)]IV-OBn), 2.1e-09 M.
As for `CC[C@H](C)[C@H](NC(=O)C[C@H](O)[C@H](Cc1ccccc1)NC(=O)[C@@H](NC(=O)[C@H](CC(C)C)NC(=O)Cc1ccccc1)C(C)C)C(=O)N[C@H](C(=O)O)C(C)C` [Compound 45, (S)-2-((2S,3S)-2-{(3S,4S)-3-hydroxy-4-[(S)-3-methyl-2-((S)-4-methyl-2-phenylacetylaminopentanoylamino)butyrylamino]-5-phenylpentanoylamino}-3-methylpentanoylamino)-3-methylbutyric acid] (PhAc-LV[Ahppa(3S,4S)]IV-OH), the IC50 was 3.5e-10 M.
